Measurements reported in the supplement of paper PMC10307832.

Experiments:
Assay in all cases: relative viability (nuclei count vs DMSO), 5 days (fraction); higher = more cells survive
[1] = compound: C1=CC=C(C(=C1)C2=CC=C(C=C2)C3=CSC4=C3C(=C(C(=O)N4)C#N)O)O + Cc1cc(Nc2cc(N3CCN(C)CC3)nc(Sc3ccc(NC(=O)C4CC4)cc3)n2)n[nH]1 [Tozasertib] (partner 0.1 µM)
Procedure, shortened: (§1)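 A single step with final 0.05% Triton X-100, 1% formaldehyde and 1 ug/ml Hoechst fixed the cells and stained nuclei 5 days after treatment. Lung cancer cell lines in 1536-well plates had been treated by pin tool the day after seeding with one drug alone or a fixed anchor-drug dose plus five library-drug doses (not always all listed) in √10 steps, and nuclei were counted on 4× images. Relative viability is the ratio of nuclei in treated wells to nuclei in vehicle wells, taken as the median of duplicate plates.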

TGX 221 + OSI-027 = compound: CC1=CN2C(=O)C=C(N=C2C(=C1)C(C)NC3=CC=CC=C3)N4CCOCC4 [TGX 221] + COc1cccc2cc(-c3nc([C@H]4CC[C@H](C(=O)O)CC4)n4ncnc(N)c34)[nH]c12 [OSI-027] (partner 0.5 µM)
Procedure, shortened: as §1

[2] = compound: O=C(CCCCCCNC(=O)c1cnc(N(c2ccccc2)c2ccccc2)nc1)NO [Ricolinostat] + C[C@]1(O)C[C@@H](c2nc(-c3ccc4ccc(-c5ccccc5)nc4c3)c3c(N)nccn32)C1 [Linsitinib] (partner 1 µM)
Procedure, shortened: as §1

[3] = compound: O=C(CCCCCCNC(=O)c1cnc(N(c2ccccc2)c2ccccc2)nc1)NO [Ricolinostat] + Nc1ncn([C@H]2C[C@H](O)[C@@H](CO)O2)c(=O)n1 [Decitabine] (partner 2 µM)
Procedure, shortened: as §1

| Cell Line | relative viability ([1]; first compound 0.08 µM) | relative viability ([1]; first compound 0.253 µM) | relative viability ([1]; first compound 0.8 µM) | relative viability ([1]; first compound 2.53 µM) | relative viability ([1]; first compound 8 µM) | relative viability (TGX 221 + OSI-027; first compound 0.08 µM) | relative viability (TGX 221 + OSI-027; first compound 0.253 µM) | relative viability (TGX 221 + OSI-027; first compound 0.8 µM) | relative viability (TGX 221 + OSI-027; first compound 2.53 µM) | relative viability (TGX 221 + OSI-027; first compound 8 µM) | relative viability ([2]; first compound 0.08 µM) | relative viability ([2]; first compound 0.253 µM) | relative viability ([2]; first compound 0.8 µM) | relative viability ([2]; first compound 2.53 µM) | relative viability ([3]; first compound 0.08 µM) | relative viability ([3]; first compound 0.253 µM) | relative viability ([3]; first compound 0.8 µM) | relative viability ([3]; first compound 2.53 µM) |
| --- | --- | --- | --- | --- | --- | --- | --- | --- | --- | --- | --- | --- | --- | --- | --- | --- | --- | --- |
| NCI-H647 | 0.2 | 0.608 | 0.366 | 0.314 | 0.246 | 0.475 | 0.562 | 0.483 | 0.517 | 0.425 | 1.13 | 1.23 | 1.16 | 0.698 | 0.365 | 0.317 | 0.31 | 0.312 |
| CAL-12T | 0.272 | 0.334 | 0.305 | 0.337 | 0.282 | 0.604 | 0.471 | 0.821 | 0.486 | 0.567 | 0.55 | 0.69 | 0.835 | 0.859 |  |  |  |  |
| 201T | 0.743 | 1.03 | 1.01 | 1.05 | 0.926 | 0.547 | 0.726 | 1.08 | 0.708 | 0.696 | 0.915 | 0.964 | 0.986 | 0.904 | 0.843 | 0.847 | 0.873 | 0.887 |
| HCC-366 | 0.139 | 0.137 | 0.14 | 0.124 | 0.0974 | 0.865 | 0.832 | 0.922 | 0.567 | 0.755 | 0.454 | 0.67 | 0.478 | 0.454 | 0.332 | 0.344 | 0.342 | 0.329 |
| NCI-H1944 | 0.269 | 0.281 | 0.269 | 0.251 | 0.228 | 0.377 | 0.39 | 0.397 | 0.409 | 0.388 | 0.976 | 1.11 | 1.1 | 0.895 | 0.409 | 0.37 | 0.382 | 0.385 |
| NCI-H1651 | 0.819 | 0.714 | 0.792 | 0.716 | 0.607 | 0.555 | 0.632 | 0.63 | 0.59 | 0.586 | 0.72 | 0.871 | 0.93 | 0.816 | 0.466 | 0.644 | 0.56 | 0.521 |
| LCLC-97TM1 | 0.22 | 0.187 | 0.164 | 0.222 | 0.187 | 0.357 | 0.466 | 0.494 | 0.485 | 0.546 | 0.171 | 0.199 | 0.231 | 0.172 | 0.225 | 0.185 | 0.214 | 0.227 |
| LC-2-ad | 0.502 | 0.539 | 0.487 | 0.429 | 0.425 | 0.745 | 0.759 | 0.931 | 0.846 | 0.804 | 0.799 | 0.834 | 0.825 | 0.684 | 0.776 | 0.784 | 0.842 | 0.835 |
| NCI-H2347 | 0.574 | 0.461 | 1.06 | 0.526 | 0.583 | 0.463 | 0.321 | 0.376 | 0.29 | 0.296 | 0.832 | 0.92 | 0.876 | 0.906 | 0.626 | 0.664 | 0.585 | 0.61 |
| NCI-H2009 | 0.789 | 0.706 | 0.719 | 0.73 | 0.683 | 0.543 | 0.583 | 0.574 | 0.569 | 0.49 | 1.08 | 1.15 | 1.09 | 0.952 | 0.376 | 0.353 | 0.35 | 0.373 |
| NCI-H1650 | 0.325 | 0.386 | 0.417 | 0.442 | 0.486 | 0.648 | 0.55 | 0.737 | 0.661 | 0.529 |  |  |  |  | 0.489 | 0.346 | 0.358 | 0.311 |
| NCI-H650 | 0.62 | 0.821 | 0.637 | 0.837 | 0.683 | 0.519 | 0.515 | 0.445 | 0.527 | 0.504 |  | 0.853 | 0.563 | 0.439 | 0.312 | 0.301 | 0.315 | 0.306 |
| NCI-H1703 |  |  |  |  |  |  |  |  |  |  |  | 0.669 | 0.774 | 0.956 |  |  |  |  |
| NCI-H2228 | 0.288 | 0.244 | 0.245 | 0.297 | 0.277 | 0.654 | 0.522 | 0.638 | 0.453 | 0.463 | 0.455 | 0.451 | 0.722 | 0.814 |  |  |  |  |
| SW 900 | 0.618 | 0.491 | 0.645 | 0.539 | 0.491 | 0.609 | 0.482 | 0.449 | 0.429 | 0.713 |  |  |  |  | 0.517 | 0.433 | 0.368 | 0.401 |
| NCI-H1563 |  |  |  |  |  | 0.796 | 0.653 | 0.69 | 0.754 | 0.633 | 1.19 | 1.12 | 1.08 | 0.982 |  |  |  |  |
| Calu-6 |  |  |  |  |  |  |  |  |  |  | 0.817 | 0.89 | 0.891 | 0.766 |  |  |  |  |
| NCI-H1623 | 0.408 | 0.53 | 0.397 | 0.457 | 0.436 | 0.44 | 0.402 | 0.423 | 0.389 | 0.477 |  |  |  |  |  |  |  |  |
| EBC-1 |  |  |  |  |  |  |  |  |  |  | 0.737 | 0.713 | 0.911 | 0.328 |  |  |  |  |
| NCI-H522 | 0.523 | 0.435 | 0.548 | 0.541 | 0.541 | 0.606 | 0.739 | 0.704 | 0.789 | 0.641 |  |  |  |  | 0.641 | 0.702 | 0.714 | 0.642 |
| NCI-H1648 | 0.503 |  | 0.413 | 0.6 | 0.392 | 0.268 |  | 0.256 | 0.237 | 0.254 |  |  |  |  |  | 0.506 | 0.486 | 0.316 |
| A549 |  |  |  |  |  |  |  |  |  |  |  | 0.533 | 0.538 | 0.562 | 0.314 | 0.259 | 0.306 | 0.246 |
| IA-LM |  |  |  |  |  |  |  |  |  |  | 0.335 | 0.529 | 0.594 | 0.259 |  |  |  |  |
| ChaGo-K-1 | 0.242 | 0.238 | 0.239 | 0.232 | 0.208 | 0.529 | 0.547 | 0.581 | 0.474 | 0.64 |  |  |  |  | 0.58 | 0.495 | 0.51 | 0.509 |
